Entries after “also recorded” stand apart in the source; their conditions may differ. Like-named read-outs stand apart in the source and are kept apart here.
Experiments:
[1] = molecular target: T1, human A2B adenosine receptor (Homo sapiens, UniProt P29275); experiment: [3H]DPCPX binding to human A2B receptors expressed in HEK293 cells; set-up: host or cells: HEK 293 cells (membranes); settings: geometric mean (95% confidence interval); >1000 = no appreciable binding; read-out: Ki, [3H]DPCPX binding to human A2B receptors expressed in HEK293 cells
T1 sequence (P29275 1-332): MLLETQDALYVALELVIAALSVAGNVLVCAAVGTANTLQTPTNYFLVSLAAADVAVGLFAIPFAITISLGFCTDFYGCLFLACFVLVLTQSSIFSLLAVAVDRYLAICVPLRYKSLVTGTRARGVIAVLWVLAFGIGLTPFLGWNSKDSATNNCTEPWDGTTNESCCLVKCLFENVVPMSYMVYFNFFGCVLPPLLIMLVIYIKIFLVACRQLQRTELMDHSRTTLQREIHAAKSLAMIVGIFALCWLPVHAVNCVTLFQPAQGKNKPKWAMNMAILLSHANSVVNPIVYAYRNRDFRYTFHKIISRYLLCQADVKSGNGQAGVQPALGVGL
Method: HEK 293 cells transfected with the human recombinant A2B adenosine receptor were obtained from Receptor Biology, Inc. (Beltsville, Md. USA).
Binding of 1 [^3H]-DPCPX to HEK 293 cells transfected with the human recombinant A2B adenosine receptors was performed according to the method described by Varani et al., 2000. In particular, assays were carried out for 60 minutes at 25° C. in 100 μl of […] Tris HCl buffer, […] MgCl2, 1 mM EDTA, 0.1 mM benzamidine pH 7.4, 2 IU/ml adenosine deaminase containing 40 nM [^3H]-DPCPX, diluted membranes (20 μg of protein/assay) and at least 6–8 different concentration of tested compounds.
(§1) The filter bound radioactivity was counted on Top Count (efficiency 57%) with Micro-Scint 20.
(§2) The filter bound radioactivity was counted on a Top Count brand Microplate Scintillation Counter (efficiency 57%) with Micro-Scint 20. […] Inhibitory binding constant. […] Results and Discussion

[2] = molecular target: T2, human A1 adenosine receptor (Homo sapiens, UniProt P30542); experiment: [3H]DPCPX binding to human A1 receptors expressed in CHO cells
T2 construct: expressed in transfected cells; host or cells: CHO cells (membranes)
T2 sequence (P30542 1-326): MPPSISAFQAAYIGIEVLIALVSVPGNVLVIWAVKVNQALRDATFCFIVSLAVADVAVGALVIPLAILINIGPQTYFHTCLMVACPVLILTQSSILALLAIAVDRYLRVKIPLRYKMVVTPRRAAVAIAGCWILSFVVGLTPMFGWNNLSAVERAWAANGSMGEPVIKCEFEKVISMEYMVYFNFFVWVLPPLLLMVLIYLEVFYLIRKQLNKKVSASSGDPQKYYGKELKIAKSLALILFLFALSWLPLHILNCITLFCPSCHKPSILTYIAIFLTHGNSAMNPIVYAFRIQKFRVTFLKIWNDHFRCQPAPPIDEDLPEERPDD
Method: (§3) The cells were grown adherently and maintained in Dulbecco's modified Eagle's medium with nutrient mixture F12 without nucleosides at 37° C. in 5% CO2/95% air. The cells were washed with phosphate-buffered saline and scraped off flasks in ice cold hypotonic buffer ([…] Tris HCl, 2 mM EDTA, pH 7.4). The cell suspension was homogenized with a Polytron and the homogenate was centrifuged for 30 minutes at 48,000 g. The resultant membrane pellet was re-suspended in 50 mM Tris HCl buffer at pH 7.4 for A1 adenosine receptors; in 50 mM Tris HCl 10 mM MgCl, at pH 7.4 for A2A adenosine receptors; in 50 mM Tris HCl, 10 mM MgCl2, 1 mM EDTA, at pH 7.4 for A3 adenosine receptors and were utilized for binding assays.
Displacement experiments were performed for 120 minutes at 25° C. in 200 μl of buffer containing 1 nM ^3H]-DPCPX 20 μl of diluted membranes (50 μg of protein/assay) and at least 6 to 8 different concentrations of examined compounds.
as §1, §2

[3] = molecular target: T3, human A2A adenosine receptor (Homo sapiens, UniProt P29274); experiment: [3H]ZM241385 binding to human A2A receptors expressed in CHO cells; settings: for Ki: read-out: Ki, [3H]ZM241385 binding to human A2A receptors expressed in CHO cells; for Ki, [3H]ZM241385 binding to human A2A receptors expressed in CHO cells: geometric mean (95% confidence interval), >1000 = no appreciable binding
T3 construct: expressed in transfected cells; host or cells: CHO cells (membranes)
Method: as §3, §1, §2

[4] = molecular target: T4, human A3 adenosine receptor (Homo sapiens, UniProt P0DMS8); experiment: [3H]MRE3008F20 binding to human A3 receptors expressed in CHO cells; settings: for Ki, [3H]MRE3008F20 binding to human A3 receptors expressed in CHO cells: geometric mean (95% confidence interval), >1000 = no appreciable binding
T4 construct: expressed in transfected cells; host or cells: CHO cells (membranes)
T4 sequence (P0DMS8 1-318): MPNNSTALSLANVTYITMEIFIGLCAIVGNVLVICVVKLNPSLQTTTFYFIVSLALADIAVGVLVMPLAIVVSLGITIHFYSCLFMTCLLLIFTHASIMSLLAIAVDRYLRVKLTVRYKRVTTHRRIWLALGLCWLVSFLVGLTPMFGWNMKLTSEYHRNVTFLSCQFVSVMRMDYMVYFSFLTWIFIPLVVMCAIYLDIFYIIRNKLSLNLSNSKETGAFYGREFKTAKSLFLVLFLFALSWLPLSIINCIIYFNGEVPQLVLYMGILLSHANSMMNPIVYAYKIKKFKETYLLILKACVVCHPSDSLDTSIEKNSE
Method: as §3
Binding of [^3H]-MRE3008-F20 to CHO cells transfected with the human recombinant A3 adenosine receptors was performed according to Varani et al., 2000. Competition experiments were carried out in duplicate in a final volume of 250 μl in test tubes containing 1 nM [^3H]-MRE3008-F20, 50 mM Tris HCl buffer, […] MgCl2, pH 7.4 and 100 μl of diluted membranes (50 μg of protein/assay) and at least 6–8 different concentrations of examined ligands for 120 minutes at 4° C.
as §1, §2

[5] = geometric mean (95% confidence interval), >1000 = no appreciable binding

T3 sequence (P29274 whole entry): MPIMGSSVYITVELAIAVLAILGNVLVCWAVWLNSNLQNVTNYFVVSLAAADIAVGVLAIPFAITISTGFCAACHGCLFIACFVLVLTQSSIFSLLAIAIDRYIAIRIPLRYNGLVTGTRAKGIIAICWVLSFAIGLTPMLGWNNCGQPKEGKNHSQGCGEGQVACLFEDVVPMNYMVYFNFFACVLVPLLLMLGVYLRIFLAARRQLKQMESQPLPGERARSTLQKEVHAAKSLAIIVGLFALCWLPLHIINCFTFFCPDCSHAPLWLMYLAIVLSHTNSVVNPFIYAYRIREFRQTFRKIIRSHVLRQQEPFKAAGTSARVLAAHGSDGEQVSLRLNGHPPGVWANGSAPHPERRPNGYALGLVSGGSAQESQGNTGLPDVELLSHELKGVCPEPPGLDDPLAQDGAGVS

Ki [1] [nM]	Ki [2, 5] [nM]	Ki [3] [nM]	Ki [4] [nM]	Ki [2] [nM]	Compound	Ki, [3H]DPCPX binding to human A1 receptors expressed in CHO cells [2, 5]	Ki, [3H]ZM241385 binding to human A2A receptors expressed in CHO cells [3]	Ki, [3H]MRE3008F20 binding to human A3 receptors expressed in CHO cells [4]
235	201	> 1000	> 1000		CCCn1c(=O)c2[nH]c(-c3cc(N)nn3C)nc2n(CCC)c1=O [AS3, 8-(3-amino-1-methyl-1H-pyrazol-5-yl)-1,3-dipropyl-3,7-dihydro-1H-purine-2,6-dione]			
342		> 1000	> 1000	122	CCCn1c(=O)c2[nH]c(-c3cc([N+](=O)[O-])cn3C)nc2n(CCC)c1=O [AS7, 8-(1-methyl-4-nitro-1H-pyrrol-2-yl)-1,3-dipropyl-3,7-dihydro-1H-purine-2,6-dione]			
> 1000		> 1000	> 1000	> 1000	CCCn1c(=O)c2[nH]c(-c3cc(NC(=O)CCCNC(=O)OC(C)(C)C)nn3C)nc2n(CCC)c1=O [AS9, tert-butyl 4-{[5-(2,6-dioxo-1,3-dipropyl-2,3,6,7-tetrahydro-1H-purin-8-yl)-1-methyl-1H-pyrazol-3-yl]amino}-4-oxobutylcarbamate]			
2060	548	> 1000	> 1000		CCCn1c(=O)c2[nH]c(-c3cc(NC(=O)CCCN)nn3C)nc2n(CCC)c1=O [AS10, 4-{[5-(2,6-dioxo-1,3-dipropyl-2,3,6,7-tetrahydro-1H-purin-8-yl)-1-methyl-1H-pyrazol-3-yl]amino}-4-oxobutan-1-aminium chloride]			
> 1000		> 1000	> 1000	> 1000	CCCn1c(=O)c2[nH]c(-c3cc(NC(=O)COc4ccc(Cl)cc4Cl)nn3C)nc2n(CCC)c1=O [AS12, 2-(2,4-dichlorophenoxy)-N-[5-(2,6-dioxo-1,3-dipropyl-2,3,6,7-tetrahydro-1H-purin-8-yl)-1-methyl-1H-pyrazol-3-yl]acetamide]			
96		> 1000	> 1000		CCCn1c(=O)c2[nH]c(-c3cc(NC(=O)Cc4cccc(OC)c4)nn3C)nc2n(CCC)c1=O [AS13, 2-(3-methoxyphenyl)-N-[5-(2,6-dioxo-1,3-dipropyl-2,3,6,9-tetrahydro-1H-purin-8-yl)-1-methyl-1H-pyrazol-3-yl]acetamide]	no appreciable affinity; also recorded: without significant binding	no appreciable affinity; also recorded: without significant binding	no appreciable affinity; also recorded: without significant binding
78		> 1000	> 1000		CCCn1c(=O)c2[nH]c(-c3cc(NC(=O)Cc4ccc([N+](=O)[O-])cc4)nn3C)nc2n(CCC)c1=O [AS15, N-[5-(2,6-dioxo-1,3-dipropyl-2,3,6,9-tetrahydro-1H-purin-8-yl)-1-methyl-1H-pyrazol-3-yl]-2-(4-nitrophenyl)acetamide]	no appreciable affinity; also recorded: without significant binding	no appreciable affinity; also recorded: without significant binding	no appreciable affinity; also recorded: without significant binding
56		> 1000	> 1000		CCCn1c(=O)c2[nH]c(-c3cc(NC(=O)Cc4ccc(OCc5ccccc5)cc4)nn3C)nc2n(CCC)c1=O [AS16, 2-[4-benzyloxyphenyl]-N-[5-(2,6-dioxo-1,3-dipropyl-2,3,6,9-tetrahydro-1H-purin-8-yl)-1-methyl-1H-pyrazol-3-yl]acetamide]	no appreciable affinity; also recorded: without significant binding	no appreciable affinity; also recorded: without significant binding	no appreciable affinity; also recorded: without significant binding
103		> 1000	> 1000		CCCn1c(=O)c2[nH]c(-c3cc(NC(=O)Cc4ccc(O)cc4)nn3C)nc2n(CCC)c1=O [AS17, 2-[4-hydroxyphenyl]-N-[5-(2,6-dioxo-1,3-dipropyl-2,3,6,9-tetrahydro-1H-purin-8-yl)-1-methyl-1H-pyrazol-3-yl]acetamide]	no appreciable affinity; also recorded: without significant binding	no appreciable affinity; also recorded: without significant binding	no appreciable affinity; also recorded: without significant binding
> 1000		> 1000	> 1000	> 1000	CCCn1c(=O)c2c(nc(/C=C/c3cc(COC(=O)c4ccccc4)on3)n2C)n(CCC)c1=O [AS20, {3-[(E)-2-(1,3-dipropyl-7-methyl-2,6-dioxo-2,3,6,7-tetrahydro-1H-purin-8-yl)vinyl]isoxazol-5-yl}methyl benzoate]			
> 1000		> 1000	> 1000	> 1000	CCCn1c(=O)c2[nH]c(-c3cc(NC(=O)COc4ccc(Cl)cc4)nn3C)nc2n(CCC)c1=O [AS21, 2-(4-chlorophenoxy)-N-[5-(1,3-dipropyl-2,6-dioxo-2,3,6,7-tetrahydro-1H-purin-8-yl)-1-methyl-1H-pyrazol-3-yl]acetamide]			
58	140				CCCn1c(=O)c2[nH]c(-c3cc(N)n(C)n3)nc2n(CCC)c1=O [AS37, 8-(5-amino-1-methyl-1H-pyrazol-3-yl)-1,3-dipropyl-3,7-dihydro-1H-purine-2,6-dione]			
303	467				CC(C)Cn1c(=O)c2nc(-c3cc(OCC(=O)Nc4ccc(F)cc4)nn3C)[nH]c2n(CC(C)C)c1=O [AS66, 2-{[5-(1,3-diisobutyl-2,6-dioxo-2,3,6,9-tetrahydro-1H-purin-8-yl)-1-methyl-1H-pyrazol-3-yl]oxy}-N-(4-fluorophenyl)acetamide]			
41	955				CCCn1c(=O)c2[nH]c(-c3cc(OCC(=O)Nc4ccncc4)nn3C)nc2n(CCC)c1=O [AS89]			
74	1000				CCCn1c(=O)c2[nH]c(-c3cc(OCC(=O)Nc4ccc(C(C)CC)cc4)nn3C)nc2n(CCC)c1=O (centres unmarked) [AS91, 1,3-di-n-propyl-8-{5-[(4-sec-butyl-phenylcarbamoyl)-methoxy]-2-methyl-2H-pyrazole-3-yl}-xanthine]			

Compound	Ki [1] [nM]	Ki [2, 5] [nM]	Ki [3] [nM]	Ki [4] [nM]	Ki [2] [nM]	Ki, [3H]DPCPX binding to human A1 receptors expressed in CHO cells [2, 5]	Ki, [3H]ZM241385 binding to human A2A receptors expressed in CHO cells [3]	Ki, [3H]MRE3008F20 binding to human A3 receptors expressed in CHO cells [4]
CCCn1c(=O)c2[nH]c(-c3cc(OCC(=O)N4CCN(Cc5ccccc5)CC4)nn3C)nc2n(CCC)c1=O [AS90]	85	810						

Reference: patent US7205403B2, “8-Heteroaryl xanthine adenosine A2B receptor antagonists” (King Pharmaceuticals Research and Development, Inc., priority 2002, dated 2007)
